Measured values taken from patent publication US20200179245A1, “HIGH EFFICIENCY SUNSCREEN COMPOSITION” (Deckner Consulting Services, LLC, priority 2015, published 2020).
Like-named read-outs stand apart in the source and are kept apart here.

Tests used:
[1] = human skin, cited from earlier work
[2] = In vitro open chamber Franz diffusion cell penetration test; type: in vitro ADME; conditions: Strat-M membrane, 37° C.
Procedure: The Test sample was Barsoleil OMC-60 with a purity of 61.95%. The control sample was Octyl Methoxycinnamate with a purity of 100%. The samples were applied to a Strat-M membrane for testing using 5 skin preparations. A 6-cell semiautomatic Franz cell setup was used for all diffusion experiments. (Franz cell Diffusion is a standard in vitro method used for penetration). Circulating water baths were set to 37° C.±0.5° C. Strat-M synthetic membrane was used in place of cadaver skin. The Strat-M® membrane was placed between the donor and receptor compartments of the Franz cells. The available open area between donor and receptor compartments measured 0.635 cm2. The compartments were clamped together, ensuring that the shiny side of the membrane was facing the donor compartment. 1 mL of the test and control samples were used and placed in the donor chamber. The receptor compartment was filled with 0.9% saline:methanol (50:50) buffer. When the receptor solution reached 37° C., the sample was added to the donor compartment. An aliquot of each sample was removed from the receptor compartment at times T=0, 2, 4, 6 and 8 hours.
The dose of the receptor phase was analyzed by HPLC, and the amount of release per unit area (μg/cm2) was plotted against the square of time and the slope was the transdermal release rate. (See FIG. 3, control sample 20, test sample 30).

Compound	in vitro skin penetration rate / skin accumulation ([1]; oil in water emulsion) [μg/cm^2]	in vitro skin penetration rate / skin accumulation ([1]; water in oil emulsion) [μg/cm^2]	Cumulative C ([2]; penetration time 0 hrs) [μg/cm^2]	Cumulative C ([2]; penetration time 2 hrs) [μg/cm^2]	Cumulative C ([2]; penetration time 4 hrs) [μg/cm^2]	Cumulative C ([2]; penetration time 6 hrs) [μg/cm^2]	Cumulative C ([2]; penetration time 8 hrs) [μg/cm^2]
CCCCC(CC)COC(=O)/C=C/c1ccc(OC)cc1 (stereo not shown) [OMC-free]	127.8	172.1±12.9	–	–	–	–	–
CCCCC(CC)COC(=O)C=Cc1ccc(OC)cc1 (stereo not shown) [OMC, Octyl Methoxycinnamate]	–	–	0	16.7	55.2	96.5	144.9
